Assay results: US20130053336A1, “TREATMENT OF CHLAMYDIACEAE INFECTIONS BY MEANS OF BETA-LACTAMS” (priority 2010, published 2013)
“Also recorded” adds a separate entry of the source.

Test system: Chlamydia trachomatis serovar L2
Assay: Infectivity of progeny bacteria (IFU titration, reactivation test)
Format: cell-based
Method: HeLa cells were infected with the Chlamydia trachomatis L2 serovar at 1 inclusion forming unit (IFU). At 3 hpi, 3 equal batches were distinguished and penicillin G was added at a concentration of 100 U/ml to the “penicillin G” batch (black bar) and “reversion” (gray bar) but not in the control batch (white bar). At 24 hpi, penicillin G was removed from the culture medium in the reversion group. At 48 hpi or 100 hpi, the supernatants and the cells were combined and stored at -80° C. Fresh cultures of HeLa cells were then incubated for 1 hour with cell extracts (left) or supernatants (right), incubated with cycloheximide and fixed 24 hours later. The nuclei and the inclusions were stained and counted to calculate the number of IFU/ml. […] It is also a first indication of the lethality of Chlamydia. HeLa cells were infected with Chlamydia trachomatis serovar L2 at 1 IFU. At 3 hpi, penicillin G was added at a concentration of 1, 10 or 100 U/ml in the penicillin G (-) and reversion (+) samples. At 24 hpi, penicillin G was removed from the culture medium in the reversion group (+). At 48 hpi or 100 hpi, the supernatants and the cells were collected and stored at -80° C. HeLa cells grown on slides were incubated for 1 hour with cell extracts (left) or with supernatants (right), treated with cycloheximide and fixed 24 hours later. The nuclei and inclusions were stained and counted to determine the number of IFU/ml. […] The infections were carried out at 37° C. for 90 minutes with centrifugation, followed by a washing of extracellular bacteria. At 3 hpi, after the washings, the culture medium was replaced with medium containing either 25 μg/ml gentamicin or 1-100 IU/ml penicillin G. At regular intervals after treatment with penicillin G, the cultures were either fixed in 4% neutral buffered PFA for 30 minutes to be prepared for confocal microscopy, or collected to determine the infectivity of the progeny bacteria, according to the previously described method (Verbeke, P. et al. PLoS Pathog 2:e45, 2006). HeLa cells cultured in monolayers on slides were infected with Chlamydia trachomatis serovar L2 and treated with penicillin G, as described above. Twenty hours after infection, the culture was washed and the medium replaced with medium free of penicillin G. Between 48 and 100 hpi, the cells and the culture medium were collected at various intervals and a titration test was performed according to the method of the prior art (Scidmore, M. A. Curr Protoc Microbiol Chapter 11: Unit 11A 11, 2005). To determine whether treatment with penicillin G could affect bacterial persistence, HeLa cells infected with L2 and treated with IFN-γ and penicillin G (500 IU/ml) from 48 hpi (i.e. 24 hours after treatment with IFN-γ) to 72 hpi (i.e. 48 hours after treatment with IFN-γ). The slides were then fixed and observed using an epifluorescence microscope (Leica D M, Leica, Mannheim, Germany) equipped with two sets of detection filters (Hoechst 360/40 nmBP-425 nmLP; FITC 480/40 nmBP-527/30 nmBP) and connected to a CCD camera CCC.

CC1(C)S[C@@H]2[C@H](NC(=O)Cc3ccccc3)C(=O)N2[C@H]1C(=O)O [Penicillin G, benzylpenicillin] was tested, and the “infectivity at low penicillin G concentrations” value (1, 10 or 100 U/ml, permanent or transitory treatment) was “same irreversible loss of infectivity; also recorded: no reinfection was obtained”, the “infectivity after removing penicillin G at 24 hpi (reversion)” value (100 U/ml from 3 hpi, removed at 24 hpi) was “no improvement in infectivity” and the “infectious ability (IFU/ml) with or without reversion phase” value (100 U/ml, 48 hpi or 100 hpi, cell extracts and supernatants, FIG. 2) was “no infectious ability could be shown”. For the same compound, the “infectivity of bacteria collected at 48 hpi compared with gentamicin-treated cells” value (continuous 100 IU/ml, 48 hpi) was “several hundred times less infectious” and the “infectivity of bacteria released at 100 hpi” value (continuous 100 IU/ml, 100 hpi) was “completely noninfectious”.
